We go through 2 compounds from PMC3637938 (Chemical research in toxicology, 2013).

Test [1] has as its target T1, FLAG-Trx2 (Saccharomyces cerevisiae, UniProt P22803).
T1 sequence (P22803 2-104): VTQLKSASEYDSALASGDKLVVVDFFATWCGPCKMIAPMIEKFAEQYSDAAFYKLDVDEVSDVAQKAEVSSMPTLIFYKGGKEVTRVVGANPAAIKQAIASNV
The test is described as follows: cross-linking in yeast cells, anti-FLAG immunoblot. In kind it is cell-based. To be noted: covalent; 1 h.

Test [2] deals with T2, FLAG-Tsa1 (Saccharomyces cerevisiae, UniProt P34760).
T2 sequence (P34760 2-196): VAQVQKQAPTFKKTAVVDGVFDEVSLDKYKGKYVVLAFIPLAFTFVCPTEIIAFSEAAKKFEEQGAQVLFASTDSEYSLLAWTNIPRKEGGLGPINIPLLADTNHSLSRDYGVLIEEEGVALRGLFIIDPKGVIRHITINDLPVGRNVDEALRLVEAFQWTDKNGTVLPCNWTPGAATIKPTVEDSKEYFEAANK
The test is described as follows: cross-linking in yeast cells, anti-FLAG immunoblot. Type of test: cell-based. To be noted: covalent; 1 h. Background: A western blot detects proteins with antibodies after separation by electrophoresis.

With `C1OC1C1CO1` (stereo not shown) [1,2,3,4-diepoxybutane], the “cross-linking in yeast cells, anti-FLAG immunoblot” value in test [1] was “each of these bifunctional electrophiles promotes cross-linking of Trx2 and Tsa1 in yeast”; in test [2], “each of these bifunctional electrophiles promotes cross-linking of Trx2 and Tsa1 in yeast”.
Take `CCOC(=O)C#CC(=O)OCC` [diethyl acetylenedicarboxylate]: the “cross-linking in yeast cells, anti-FLAG immunoblot” value in test [1] was “each of these bifunctional electrophiles promotes cross-linking of Trx2 and Tsa1 in yeast”; in test [2], “each of these bifunctional electrophiles promotes cross-linking of Trx2 and Tsa1 in yeast”.
